Experimental data reported in US20240216376A1, “COMBINATION THERAPIES FOR THE TREATMENT OF CANCER” (Duke University, priority 2021, published 2024).

What was measured:
AML cell lines = experiment: Short-term drug sensitivity assay (GI50), selinexor plus background drug; assay type: cell-based; conditions: fixed-concentration background drug; for sensitization to selinexor (relative selinexor GI50), AKT or MEK/ERK inhibitor background: panel of eight AML cell lines, 72 hours; for sensitization to selinexor (relative selinexor GI50), PI3K isoform-specific inhibitor background: panel of AML cell lines
Experimental: Short-term cell viability assays were conducted. Briefly, AML cells were seeded at a density of 7,500 cells/well, treated with vehicle (DMSO) or a 10-fold serial dilution of selinexor (individually or combination with fixed-concentration background drug) and assessed for viability after 72-hours using Cell Titer Glo (Promega). The relative cell viability was determined by normalizing the raw luminescence values for each treatment condition to either the DMSO-treated well (selinexor individually) or the background drug only well (selinexor combinations). GI50 values approximate the concentration of selinexor required to inhibit growth of cells by 50%. Values were interpolated from dose-response curves plotted using GraphPad/Prism 8 software.

AKT [1] = experiment: Western immunoblot of AKT phosphorylation in AML cell lines; assay type: cell-based
Experimental: (§1) Protein lysates were prepared with 1×CST Lysis Buffer (CST #9803) supplemented with 1× cOmplete protease inhibitor cocktail (Roche #04693124001) and 1× PhosSTOP phosphatase inhibitor (Roche #04906837001). Crude lysates were rotated for 15 minutes with lysis buffer, cleared by centrifugation at 13,000 rpm for 10 minutes at 4° C. and normalized by total protein content using standard Bradford analysis. Membranes were probed with primary antibodies β-actin (13E5) (CST #4970 diluted 1:5000 in 5% BSA), p-AKT T308 (244F9) (CST #4056 diluted 1:1000 in 5% BSA), p-AKT S473 (D9E) (CST #4060 diluted 1:1000 in 5% BSA), T-AKT (C67E7) (CST #4691 diluted 1:3000 in 5% BSA), p-GSK3B S9 (D85E12) (CST #5558 diluted 1:1000 in 5% BSA), p-BAD S136 (D25H8) (CST #4366 diluted 1:1000 in 5% BSA), CRM1 (C-1) (sc #74454 diluted 1:100 in 5% BSA), cleaved-PARP (D64E10) (CST #5625 diluted 1:1000 in 5% BSA), cleaved-Caspase3 D175 (CST #9661 diluted 1:500 in 5% BSA), p110-g (D55D5) (CST #5405 diluted 1:1000 in 5% BSA), p110α (C73F8) (CST #4249 diluted 1:1000 in 5% BSA), p110β (C33D4) (CST #3011 diluted 1:1000 in 5% BSA), p1108 (D1Q7R) (CST #34050 diluted 1:1000 in 5% BSA) or p101 (D32A5) (CST #5569 diluted 1:1000 in 5% BSA) overnight (16 hours). Following incubation with HRP-conjugated secondary antibody, blots were developed with SuperSignal West Pico PLUS Chemiluminescent Substrate (ThermoFisher) or ECL Western Blotting Substrate (ThermoFisher).
To validate selinexor's ability to activate PI3K/AKT signaling, each of five AML cell lines was treated with selinexor for 24 hours before performing western blot analysis. […] Additional AKT-dependent phosphorylation marks on PRAS40, FOXO3a, and TSC2 were also assessed in OCI-AML2 cells and found to be increased. This phosphorylation pattern was indicative of activated AKT signaling. To characterize the kinetics of selinexor-induced AKT activation, AML cells were treated with selinexor and collected samples at interval time points up to 48 hours. Across multiple cell lines, activation of AKT signaling was observed starting at 8-24 hours (FIG. 2B). […] The delays between treatment and AKT activation, observed both in vivo and in vitro, were not inconsistent with the presumption that selinexor primarily acts through transcriptional mechanisms. Finally, to assess the exclusivity of these findings for selinexor, cells were treated with a panel of eight additional anti-leukemic drugs for 24 hours.

RAS = experiment: Ras-GTP immunoprecipitation (RAF1-RBD pulldown); assay type: cell-based
Description: Active GTP bound Ras was pulled down and detected using the Active Ras Pull-Down and Detection Kit (Thermo Scientific, #16117) according to manufacturer's instruction. At least 10×10^6 cells were used in pull-down and lysates were normalized to ensure equal protein input across DMSO and selinexor-treated samples within each cell line.

OCI-AML2 cells [2] = experiment: Pooled CRISPR selinexor sensitizer screen, selinexor dose (approx. GI50); assay type: cell-based; conditions: Homo sapiens, 336 h, two-week screen period, approximate, read-out: GI50 concentration
Experimental: Virus production, titering and transduction was performed as previously described. In short, viral titer (Infectious Units (IFU)/mL) was found by transducing OCI-AML2 cells with a 1:3 dilution series of library virus, selecting cells with puromycin for 2 days and determining multiplicity of infection (MOI) from % of cells infected. Viral titer is equal to (#cells seeded*MOI*Virus dilution factor)/(Volume of virus added to each well). […] For the selinexor sensitizer screen, selinexor was dosed at 100 nM, a concentration that yielded sufficient selective pressure without excessive cell death (approximately the GI50 concentration) over the two-week screen period. […] Genomic DNA was extracted using the DNeasy Blood & Tissue Kit (Qiagen) from 25×10^6 cell samples taken prior to dividing cells into treatment conditions (time zero) and after completion of the two-week screen. Amplification of the sgRNA barcodes and indexing of each sample was performed via 2-step PCR as previously described.

AKT [3] = experiment: AKT activation in vivo, syngeneic MLL-AF9-driven model of AML; conditions: MLL-AF9 cells from treated mice
OCI-AML2 cells [4] = experiment: Reverse phase protein array (RPPA) analysis; assay type: cell-based
Experimental: OCI-AML2 cells were treated with DMSO or selinexor for 3, 24 and 48-hours at which point 3×10^6 cells were pelleted and frozen at -80° C. RPPA analysis was performed as previously described. All samples were conducted in biological triplicate and normalized to DMSO control at each respective timepoint. Next, it was sought to identify the signaling nodes activated by selinexor treatment. To do this, a reverse phase protein array (RPPA) was used to analyze AML cells treated with DMSO or selinexor for 48 hours, using a dose of selinexor sufficient to provide an on-target effect but not high enough to impose a meaningful selective pressure. The RPPA platform, which provides quantitative measurements of 160 epitopes and phospho-epitopes representing cellular growth, proliferation, and signaling pathways, identified many drug-induced effects, several of which supported previously described mechanisms of selinexor activity. […] (FIG. 1C). […] In addition to corroborating selinexor's established effects, the RPPA data was able to identify selinexor-induced downregulations of phospho-S6 at Ser235/236 and Ser240/244, phospho-elF4G at […], and phospho-4E-BP1 at […], which collectively pointed to suppression of mTORC1 signaling (FIG. 1C). This idea has been raised in multiple myeloma and was further supported here by the reciprocal upregulation of DEPTOR, a negative regulator of mTOR.

P2RY2 = experiment: qRT-PCR of P2RY2 expression; assay type: cell-based
Experimental: RNA was isolated from whole cells with the RNEasy Mini kit (Qiagen). cDNA was reverse transcribed from total RNA samples using iScript cDNA Synthesis Kit with 1 μg of RNA template. qRT-PCR was carried out using iQ SYBR Green Supermix and a CFX384 Touch Real-Time PCR Detection System, according to manufacturer instructions. Fold expression was determined by normalizing cycle threshold (Cq) values to ACTB reference gene and normalizing samples to control sample, in accordance with the ΔΔCq method.

extracellular ATP = experiment: Extracellular ATP release in presence of ARL67156; assay type: cell-based; conditions: 36 hours, with ectonucleotidase inhibitor ARL67156, normalized for cell quantity
Experimental: To assess the role of P2RY2 in selinexor-induced AKT activation, the ability of P2RY2 to activate AKT in the AML cell lines was first tested by culturing cells in the presence of exogenous ATP or UTP. Cells cultured with exogenous ATP activated AKT signaling while cells cultured with exogenous UTP only minimally activated AKT, if at all, prompting the possibility that selinexor may activate AKT signaling through induced release of extracellular ATP. This was tested by treating cells with selinexor versus vehicle in the presence of the ectonucleotidase inhibitor ARL67156 and quantifying the amount of extracellular ATP released after 36 hours.

MAPK signaling = experiment: Western blot of MAPK signaling in AML cell lines; assay type: cell-based; conditions: multiple AML cell lines
Experimental: as §1, with “Following incubation with HRP-conjugated secondary antibody, blots were developed with SuperSignal West Pico PLUS Chemiluminescent Substrate (ThermoFisher) or ECL Western Blotting Substrate (ThermoFisher).” left out

[5] = assay type: in vivo; conditions: selinexor 15 mg/kg in mice
Experimental: Animals transplanted with these AML cells were treated with the combination of selinexor (15 mg/kg, oral gavage) and ipatasertib (65 mg/kg, oral gavage) or either drug alone every other day for ten days.

CCn1c(-c2nonc2N)nc2c(C#CC(C)(C)O)ncc(OC[C@H]3CCCNC3)c21 [GSK690693]
sensitization to selinexor (relative selinexor GI50), AKT or MEK/ERK inhibitor background (AML cell lines): capable of sensitizing all eight of the AML cell lines tested to selinexor

NC1(c2ccc(-c3nc4ccn5c(=O)[nH]nc5c4cc3-c3ccccc3)cc2)CCC1 [MK-2206]
sensitization to selinexor (relative selinexor GI50), AKT or MEK/ERK inhibitor background (AML cell lines): capable of sensitizing all eight of the AML cell lines tested to selinexor

Cc1nc(NC(=O)N2CCC[C@H]2C(N)=O)sc1-c1ccnc(C(C)(C)C(F)(F)F)c1 [BYL-719]
sensitization to selinexor (relative selinexor GI50), PI3K isoform-specific inhibitor background (AML cell lines): unable to sensitize any of the cell lines to selinexor

C[C@H](NC(=O)c1c(N)nn2cccnc12)c1cc2cccc(C#Cc3cnn(C)c3)c2c(=O)n1-c1ccccc1 [IPI-549]
sensitization to selinexor (relative selinexor GI50), PI3K isoform-specific inhibitor background (AML cell lines): capable of sensitizing each AML cell line to selinexor

Cc1cc(C(C)Nc2ccccc2)c2nc(N3CCOCC3)cc(=O)n2c1 (stereo not shown) [TGX-221]
sensitization to selinexor (relative selinexor GI50), PI3K isoform-specific inhibitor background (AML cell lines): unable to sensitize any of the cell lines to selinexor

NC(=O)/C(=C/n1cnc(-c2cc(C(F)(F)F)cc(C(F)(F)F)c2)n1)c1cncnc1 [eltanexor]
AKT phosphorylation at Thr308 and Ser473 (second-generation CRM1 inhibitor) (AKT [1]; western blot of eltanexor-treated samples): produced consistent phosphorylation of AKT at Thr308 and Ser473

Cc1ccc2c(c1)C=Cc1cc(C)ccc1C2c1cn(Cc2ccc(C(=O)Nc3nn[nH]n3)o2)c(=O)[nH]c1=S [AR-C118925XX]
p-AKT T308 in FLT3-mutant expressing cells (AKT [1]; OCI-AML2 cells expressing D835Y-mutant FLT3): reduced but did not completely ablate the elevated p-AKT T308 signal | p-AKT T308, baseline (AKT [1]; OCI-AML2 cells expressing GFP, western blot): suppressed p-AKT T308 | effect on selinexor-induced GTP-RAS (RAS; OCI-AML2, AR-C added to selinexor): able to reverse the increased GTP-RAS

CC(C)NC[C@@H](C(=O)N1CCN(c2ncnc3c2[C@H](C)C[C@H]3O)CC1)c1ccc(Cl)cc1 [ipatasertib]
sensitization to selinexor (relative selinexor GI50), AKT or MEK/ERK inhibitor background (AML cell lines): capable of sensitizing all eight of the AML cell lines tested to selinexor

O=C(/C=C\n1cnc(-c2cc(C(F)(F)F)cc(C(F)(F)F)c2)n1)NNc1cnccn1 [selinexor]
GI50 (OCI-AML2 cells [2]): ~100 nM | AKT phosphorylation at Thr308 and Ser473 (AKT [1]; five AML cell lines, selinexor 24 hours, western blot): increased AKT phosphorylation at both Thr308 and Ser473 | start of activation of AKT signaling (AKT [1]; multiple AML cell lines, time points up to 48 hours): 8 to 24 h | start of AKT activation after treatment (AKT [3]): 6 to 8 h | RPPA expression of phospho-AKT (Thr308 and Ser473) (OCI-AML2 cells [4]; OCI-AML2 cells, 48 hours selinexor vs DMSO): two of the strongest upregulations identified by RPPA were reserved for AKT | RPPA phospho-ERK at Thr202/Tyr204 (OCI-AML2 cells [4]; selinexor- versus vehicle-treated cells): an increase in phopho-ERK at Thr202/Tyr204 | P2RY2 expression (P2RY2; each of five AML cell lines, vs DMSO control): increased P2RY2 expression | time course of P2RY2 transcriptional upregulation (P2RY2; qRT-PCR, up to 48 hours): transcriptional upregulation of P2RY2 starting at 12 and increasing through 48 hours | extracellular ATP released (extracellular ATP): no increase in extracellular ATP | GTP-RAS (RAS; five AML cell lines, selinexor- versus vehicle-treated): increased GTP-RAS | MAPK signaling (MAPK signaling): activated MAPK signaling in a P2RY2 dependent manner | on-target response [5]: induction of p53
